Measured values reported in ChEMBL document CHEMBL5543137, “Design and Synthesis of Novel Ultralong-Acting Peptides as EDP-EBP Interaction Inhibitors for Pulmonary Fibrosis Treatment” (J Med Chem, 2024).
The source made the active and inactive calls. The calls are words filed in the database; no cut-off is given here. Starred links: 1 amine or outer side, 2 acyl side, 3 side chain; linkers in the order of their positions; H or OH if unused. Non-standard residues stand in square brackets, D forms with d. Residues, ends and D or L forms follow the SMILES beside them. *: point of attachment. C20 diacid = O=C(O)CCCCCCCCCCCCCCCCCCC(=O)*; γGlu = O=C(O)[C@H](CCC(=O)[*:2])N[*:1]; Iva = CC[C@](C)(N)C(=O)O; PEG2 = NCCOCCOCCC(=O)O

Legend:
[1] = Half-life in Sprague-Dawley rat serum at 0.04 mg/kg, sc administered as single dose measured upto 10 days by LC-MS/MS method; format: ADME, organism-based; details: time < 10 day
[2] = tested on: Mus musculus; experiment: Antifibrotic activity against BLM-induced C57BL/6 mouse pulmonary fibrosis model assessed as reduction in Des gene expression at 240 ug/kg/day, sc administered for 2 weeks starting from 7 days post BLM induction and measured after 21 days post BLM induction by ScRNA-sequencing analysis; format: functional, organism-based; details: dose 240.0 µg/kg/day
[3] = tested on: Mus musculus; experiment: Antifibrotic activity against BLM-induced C57BL/6 mouse pulmonary fibrosis model assessed as reduction in Acta2 gene expression at 240 ug/kg/day, sc administered for 2 weeks starting from 7 days post BLM induction and measured after 21 days post BLM induction by ScRNA-sequencing analysis; format: functional, organism-based; details: dose 240.0 µg/kg/day
[4] = tested on: TC-1; experiment: Inhibition of EBP signaling pathway in TGFalpha induced mouse TC-1 cells assessed as reduction in AKT phosphorylation at 10 uM incubated for 24 hrs by Western blotting analysis; format: cell-based
[5] = Binding affinity to EBP (unknown origin) by ITC method; parameters: species or system Homo sapiens
[6] = tested on: Mus musculus; experiment: Antifibrotic activity against BLM-induced C57BL/6 mouse pulmonary fibrosis model assessed as reduction in ECM1 gene expression at 240 ug/kg/day, sc administered for 2 weeks starting from 7 days post BLM induction and measured after 21 days post BLM induction by ScRNA-sequencing analysis; format: functional, organism-based; details: dose 240.0 µg/kg/day
[7] = tested on: Mus musculus; experiment: Antifibrotic activity against BLM-induced C57BL/6 mouse pulmonary fibrosis model assessed as reduction in lung Fn expression at 240 ug/kg/day, sc administered for 2 weeks starting from 7 days post BLM induction and measured after 21 days post BLM induction by Western blotting analysis; format: functional, organism-based; details: dose 240.0 µg/kg/day
[8] = tested on: RAW264.7; experiment: Induction of cell migration in mouse RAW264.7 cells at 10 uM by DAPI staining based assay; format: functional
[9] = tested on: A549; experiment: Antifibrotic activity against BLM-induced human A549 cells cocultured with RAW264.7 cells assessed as reduction in Fn expression at 10 uM after 24 hrs by Western blotting analysis; format: functional, cell-based
[10] = tested on: Mus musculus; experiment: Antifibrotic activity against BLM-induced C57BL/6 mouse pulmonary fibrosis model assessed as reduction in TIMP-1 expression at 240 ug/kg/day, sc administered for 2 weeks starting from 7 days post BLM induction and measured after 21 days post BLM induction in presence of Clo-Lip; format: functional, organism-based; details: dose 240.0 µg/kg/day
[11] = tested on: Mus musculus; experiment: Antifibrotic activity against BLM-induced C57BL/6 mouse pulmonary fibrosis model assessed as reduction in Vimentin expression at 240 ug/kg/day, sc administered for 2 weeks starting from 7 days post BLM induction and measured after 21 days post BLM induction in presence of GM6001; format: functional, organism-based; details: dose 240.0 µg/kg/day
[12] = tested on: Mus musculus; experiment: Antifibrotic activity against BLM-induced C57BL/6 mouse pulmonary fibrosis model assessed as reduction in Tpm2 gene expression at 240 ug/kg/day, sc administered for 2 weeks starting from 7 days post BLM induction and measured after 21 days post BLM induction by ScRNA-sequencing analysis; format: functional, organism-based; details: dose 240.0 µg/kg/day
[13] = tested on: Mus musculus; experiment: Antifibrotic activity against BLM-induced C57BL/6 mouse pulmonary fibrosis model assessed as reduction in Fbn1 gene expression at 240 ug/kg/day, sc administered for 2 weeks starting from 7 days post BLM induction and measured after 21 days post BLM induction by ScRNA-sequencing analysis; format: functional, organism-based; details: dose 240.0 µg/kg/day
[14] = tested on: A549; experiment: Antifibrotic activity against TNFalpha-induced human A549 cells assessed as downregulation of Tgfb1 gene expression level at 10 uM incubated for 24 hrs by RT-qPCR analysis; format: functional, cell-based
[15] = tested on: A549; experiment: Inhibition of EBP signaling pathway in TGFalpha induced human A549 cells assessed as reduction in PI3K phosphorylation at 10 uM incubated for 24 hrs by Western blotting analysis; format: cell-based
[16] = tested on: Mus musculus; experiment: Antifibrotic activity against BLM-induced C57BL/6 mouse pulmonary fibrosis model assessed as reduction in Fn gene expression at 240 ug/kg/day, sc administered for 2 weeks starting from 7 days post BLM induction and measured after 21 days post BLM induction by ScRNA-sequencing analysis; format: functional, organism-based; details: dose 240.0 µg/kg/day
[17] = tested on: Mus musculus; experiment: Antifibrotic activity against BLM-induced C57BL/6 mouse pulmonary fibrosis model assessed as reduction in FN expression at 240 ug/kg/day, sc administered for 2 weeks starting from 7 days post BLM induction and measured after 21 days post BLM induction in presence of GM6001; format: functional, organism-based; details: dose 240.0 µg/kg/day
[18] = tested on: Mus musculus; experiment: Antifibrotic activity against BLM-induced C57BL/6 mouse pulmonary fibrosis model assessed as improvement in lung condition at 30 to 240 ug/kg, sc administered for 2 weeks starting from 7 days post BLM induction and measured after 21 days post BLM induction; format: functional, organism-based; details: dose 30-240 µg/kg
[19] = Stability in rat serum measured upto 48 hrs by LC-MS/MS method; format: ADME, cell-free
[20] = tested on: Mus musculus; experiment: Antifibrotic activity against BLM-induced C57BL/6 mouse pulmonary fibrosis model assessed as reduction in spp1 gene expression at 240 ug/kg/day, sc administered for 2 weeks starting from 7 days post BLM induction and measured after 21 days post BLM induction by ScRNA-sequencing analysis; format: functional, organism-based; details: dose 240.0 µg/kg/day
[21] = tested on: Mus musculus; experiment: Antifibrotic activity against BLM-induced C57BL/6 mouse pulmonary fibrosis model assessed as reduction in mortality at 150 ug/kg, sc administered for 2 weeks starting from 7 days post BLM induction and measured after 21 days post BLM induction; format: functional, organism-based; details: dose 150.0 µg/kg
[22] = tested on: Mus musculus; experiment: Antifibrotic activity against BLM-induced C57BL/6 mouse pulmonary fibrosis model assessed as reduction in Col5a1 gene expression at 240 ug/kg/day, sc administered for 2 weeks starting from 7 days post BLM induction and measured after 21 days post BLM induction by ScRNA-sequencing analysis; format: functional, organism-based; details: dose 240.0 µg/kg/day
[23] = tested on: Mus musculus; experiment: Antifibrotic activity against BLM-induced C57BL/6 mouse pulmonary fibrosis model assessed as reduction in Tnc gene expression at 240 ug/kg/day, sc administered for 2 weeks starting from 7 days post BLM induction and measured after 21 days post BLM induction by ScRNA-sequencing analysis; format: functional, organism-based; details: dose 240.0 µg/kg/day
[24] = tested on: Mus musculus; experiment: Antifibrotic activity against BLM-induced C57BL/6 mouse pulmonary fibrosis model assessed as reduction in Adamts2 gene expression at 240 ug/kg/day, sc administered for 2 weeks starting from 7 days post BLM induction and measured after 21 days post BLM induction by ScRNA-sequencing analysis; format: functional, organism-based; details: dose 240.0 µg/kg/day
[25] = tested on: Mus musculus; experiment: Antifibrotic activity against BLM-induced sc dosed C57BL/6 mouse pulmonary fibrosis model assessed as minimum effective dose administered for 2 weeks starting from 7 days post BLM induction and measured after 21 days post BLM induction; format: functional; details: C57BL/6, 336 h, dose 30-240 µg/kg, read-out: MED
[26] = tested on: Mus musculus; experiment: Antifibrotic activity against BLM-induced C57BL/6 mouse pulmonary fibrosis model assessed as reversal of fibroblast activating effect at 240 ug/kg/day, sc administered for 2 weeks starting from 7 days post BLM induction and measured after 21 days post BLM induction; format: functional, organism-based; details: dose 240.0 µg/kg/day
[27] = tested on: Mus musculus; experiment: Antifibrotic activity against BLM-induced C57BL/6 mouse pulmonary fibrosis model assessed as reduction in Ctgf gene expression at 240 ug/kg/day, sc administered for 2 weeks starting from 7 days post BLM induction and measured after 21 days post BLM induction by ScRNA-sequencing analysis; format: functional, organism-based; details: dose 240.0 µg/kg/day
[28] = tested on: A549; experiment: Antifibrotic activity against TNFalpha-induced human A549 cells assessed as downregulation of vimentin gene expression level at 10 uM incubated for 24 hrs by RT-qPCR analysis; format: functional, cell-based

CC[C@](C)(NC(=O)[C@@H](NC(=O)CCOCCOCCNC(=O)CCOCCOCCNC(=O)CC[C@H](NC(=O)CCCCCCCCCCCCCCCCCCC(=O)O)C(=O)O)C(C)C)C(=O)NCC(=O)N[C@@H](CO)C(=O)N1CCC[C@H]1C(=O)N[C@@H](CO)C(=O)N[C@@H](C)C(=O)N[C@@H](CCC(N)=O)C(=O)N[C@@H](CCC(=O)O)C(=O)N[C@@H](CCC(=O)O)C(=O)N[C@@H](C)C(=O)N[C@@H](CO)C(=O)N1CCC[C@H]1C(=O)N[C@@H](C)C(N)=O ({C20 diacid-γGlu-PEG2-PEG2}-V[Iva]GSPSAQEEASPA-NH2)
half-life [1]: 33.4 h
Activity [2]: Active
Activity [3]: Active
inhibition [4]: Active
Kd [5]: 117 µM
Activity [6]: Active
Activity [7]: Active
Activity [8]: Active
Activity [9]: Active
Activity [10]: inactive
Activity [11]: inactive
Activity [12]: Active
Activity [13]: Active
Activity [14]: Active
inhibition [15]: Active
Activity [16]: Active
Activity [17]: inactive
Activity [18]: Active
Stability [19]: Stable
Activity [20]: Active
Activity [21]: Active
Activity [22]: Active
Activity [23]: Active
Activity [24]: Active
minimal effective dose [25]: 0.03 mg/kg
Activity [26]: Active
Activity [27]: Active
Activity [28]: Active
